Patent US20240182873A1, “PRENYLTRANSFERASE AND A […], TISSUE, AND ORGANISM COMPRISING SAME” (YEDA RESEARCH AND DEVELOPMENT CO. LTD., priority 2021, published 2024)

What was measured:
[1] = test system: Helichrysum umbraculigerum HuPTx (SEQ ID NO: 7), N-terminal plastid targeting sequence removed; assay: Steady state kinetic analysis of HuPTx with olivetolic acid and GPP (yeast microsomes, CBGA production); type: biochemical; settings: varying olivetolic acid (0.5 μM-1.5 mM), constant GPP (1 mM), pH 8.5, 30° C., 15 min, n=3
Description: (§1) FIG. 4 includes graphs showing steady state kinetic analysis of Helichrysum umbraculigerum PT1 (HuPT1; SEQ ID NO: 1), HuPT3 (SEQ ID NO: 3) and HuPTx (SEQ ID NO: 7) with olivetolic acid and GPP. The Michaelis-Menten Km value of each enzyme was calculated using varying olivetolic acid (0.5 μM-1.5 mM) and constant GPP (1 mM) concentrations (n=3 technically independent samples; measurements were plotted individually).
(§2) HuPT1 (SEQ ID NO: 1), HuPT2 (SEQ ID NO: 2), HuPT3 (SEQ ID NO: 3), HuPTx (SEQ ID NO: 7) genes from H. umbraculigerum and GOT4 gene from Cannabis sativa were separately cloned into pESC-HIS vector. Microsomal preparations from yeast cells transformed with pESC-HIS vectors were performed as described by Jozwiak et al. (2020). PT enzymatic assay was carried out as described previously for CsGOT4 (Luo et al., 2019).
(§3) Microsomes (2 μl) were dissolved in reaction buffer (50 mM Tris-HCl, 10 mM MgCl2, pH 8.5) and substrate was added [0.5 μM-1.5 mM μM olivetolic acid (Cayman Chemicals), 1 mM geranyl pyrophosphate (GPP, Sigma Aldrich)] to a total volume of 50 μl. Samples were incubated for 15 min at 30° C. Samples were extracted with 100 μl […] followed by vortexing and centrifugation. The organic layer was filtered and analyzed via UPLC-qTOF and Triple Quad (TQ) instruments. […]

[2] = test system: Helichrysum umbraculigerum PT1 (HuPT1; SEQ ID NO: 1), N-terminal plastid targeting sequence removed; assay: Steady state kinetic analysis of HuPT1 with olivetolic acid and GPP (yeast microsomes, CBGA production); type: biochemical; settings: varying olivetolic acid (0.5 μM-1.5 mM), constant GPP (1 mM), pH 8.5, 30° C., 15 min, n=3
Description: as §1, §2, §3

[3] = test system: Helichrysum umbraculigerum HuPT3 (SEQ ID NO: 3), N-terminal plastid targeting sequence removed; assay: Steady state kinetic analysis of HuPT3 with olivetolic acid and GPP (yeast microsomes, CBGA production); type: biochemical; settings: varying olivetolic acid (0.5 μM-1.5 mM), constant GPP (1 mM), pH 8.5, 30° C., 15 min, n=3
Description: as §1, §2, §3

[4] = test system: Cannabis sativa geranylpyrophosphate:olivetolate geranyltransferase 4 (CsGOT4); settings: Luo et al., 2019; cited from earlier work
[5] = In vitro enzymatic assay with PTs: CBGA production by yeast microsomal fractions; type: biochemical; settings: purified yeast microsomal fraction expressing the PT; OA and GPP as substrates; LC-MS
From the text: FIG. 2 includes a graph showing in vitro production of cannabigerolic acid (CBGA). Purified microsomal fraction from yeast cells expressing prenyltransferases (PTs) were used in enzyme assay containing olivetolic acid (OA) and geranylpyrophosphate (GPP). Cannabis sativa geranylpyrophosphate:olivetolate geranyltransferase 4 (CsGOT4) enzyme assay was used as positive control in experiment. Extracted ion chromatograms (EICs) are shown. LC-MS was used for assay products analysis. Standard—STD; Negative control—Empty vector.
as §2
The inventors profiled six tissues (young leaf, old leaf, florets and receptacles of flowers, stems, and roots) from H. umbraculigerum, using UPLC-qTOF, and identified CBGA in all the tissues, excluding roots (FIG. 1). CBGA is the known central precursor to Δ^9-tetrahydrocannabinolic acid (THCA), cannabidiolic acid (CBDA) and several other cannabinoids. It is produced from olivetolic acid (OA) and geranyl pyrophosphate (GPP) by an enzymatic reaction catalyzed by geranylpyrophosphate:olivetolate geranyltransferase 4 (GOT4). To identify genes in H. umbraculigerum associated with GOT4 like activity, the inventors searched for candidate prenyltransferase genes in Helichrysum transcriptome. Four prenyltransferase like genes, namely, HuPT1 (SEQ ID NO: 1), HuPT2 (SEQ ID NO: 2), HuPT3 (SEQ ID NO: 3) and HuPTx (SEQ ID NO: 7) were selected for further characterization based on their differential expression profile in leaves compared to other tissues. All these PTs shared less than 40% homology with CsGOT4 that is known to partake in cannabinoid biosynthesis. […]

## CCCCCc1cc(O)cc(O)c1C(=O)O [olivetolic acid]
[1]
  Km: 2 ± 0.8 µM
[2]
  Km: 19 ± 6.3 µM
[3]
  Km: 110 ± 44.3 µM
[4]
  Km: 6.7 ± 0.3 µM

B1: HuPTx: Prenyltransferase from Helichrysum umbraculigerum, gene SEQ ID NO: 7, expressed in yeast microsomes (protein)
chain: MASLAIGSLGSPSSRQCSSPVASSSSFAIGSQIASKFLRISKFDKTKNSPLTLQQKHINKSIDQSFFEPLPLHKINKDKFKLYATSTNNPQFDATHDLKTPEVSIINFVDALYRLIRPYTAVVTIVSVVAMSLLTVNSLSDFSPLFFIKVVQALIGGIFMQMYVSGFNQICDIELDKVNKQSLPLAAGELSMKTAIVIASLSAIMSLSIGWFVGSPPLLWCLVWWFIVGTAYSANVLPYLRWKRFPFTAAFCAMTSRALVLPIGYYLHMQNSIPGVSALLSRPILFAVAMLSAFSLSAMFFKDIPDIKGDRMHGIKSLAIKLGEKRVYWISISIIEIAYIAAAFIGATSPISWSKYVTIIGHLGMGLLLWVRARSVDPTNTVAVQSMYMFLIKLVYAEYGLISLVR
[5]
  production of CBGA (PT activity): clear production of CBGA

B2: HuPT3: Prenyltransferase from Helichrysum umbraculigerum, gene SEQ ID NO: 3, expressed in yeast microsomes (protein)
chain: MKSLIIGSFSNKVSCYSPSLPDSSSSLIPTGCYHVSLRTFQRNRAIQAQSSLVRCNIGKFNETLLLSRKRSTKHVACAVSEQPIEPDATNPQSSLPNALDAFYRFSRPHTVIGTALSIVSVSLLAVQKLSDFSPLFFIGVFEAIVAAFFMNIYIVGLNQLSDIEIDKVNKPYLPLASGEYSVQTGIIIVSSFAVMSFWLGWIVGSWPLFWALFISFLLGTAYSINIPMLRWKRFALVAAMCILAVRAIIVQVAFYLHIQTFVYGRLAVFPKPVIFATGFMSFFSVVIALFKDIPDIVGDKIFGIQSFTVRMGQKRVFWICILLLEIAYGVAILVGASSPFLWSRYITVLGHAILGLILWGRAKSTDLESKSAITSFYMFIWQLFYAEYLLIPLVR
[5]
  production of CBGA (PT activity): clear production of CBGA

B3: HuPT1: Prenyltransferase from Helichrysum umbraculigerum, gene SEQ ID NO: 1, expressed in yeast microsomes (protein)
chain: MELSLSSSSSSSLPQLHTHPSSSSSSSHYIKKSPFFINKFNNHTKCKFHNSSALRTNFFYTTITKTSSSRFVLNKNPNQFSVKACSQVGSAGSDPALNKVADFKDAFWRFLRPHTIRGTALGSVSLVTRALLENPNLIRWSLLLKAFSGLVALICGNGYIVGINQIYDIGIDKVNKPYLPIAAGDLSVQSAWFLVLAFAMVGVIIVGMNFGPFITSLYSLGLFLGTIYSVPPLRMKRFPVVAFLIIATVRGFLLNFGVYYAVRAALGLTFQWSSAVAFITTFVTLFALVIAITKDLPDVEGDRKFQISTFATKLGVRNIALLGSGLLLINYIGSIVAALYMPQAFRSSLMIPLHTILASCLIYQAWILERANYTQEAIAGYYRFVWNLFYSEYIIFPFI
[5]
  production of CBGA (PT activity): clear production of CBGA
